Like-named read-outs stand apart in the source and are kept apart here.
Key:
[1] = molecular target: T1, EGFR wild type (Homo sapiens, UniProt P00533); test: Inhibition of EGFR wild type biochemical enzymatic activity (HTRF); conditions: 1 mM ATP
T1 construct: purchased Carna Bio
In short: (§1)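 Using a high ATP level (1 mM), wild-type and mutant EGFR enzymes were incubated 1 h at room temperature with inhibitor and 1 μM biotinylated TK substrate. Phosphorylation was quantified as the 665/615 nm HTRF ratio. IC50s were derived by logistic fitting.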

[2] = molecular target: T2, EGFR L858R (Homo sapiens, UniProt P00533, L858R); test: Inhibition of EGFR L858R biochemical enzymatic activity (HTRF); conditions: 1 mM ATP
T2 construct: purchased Carna Bio
T2 sequence (P00533 25-1210 L858R): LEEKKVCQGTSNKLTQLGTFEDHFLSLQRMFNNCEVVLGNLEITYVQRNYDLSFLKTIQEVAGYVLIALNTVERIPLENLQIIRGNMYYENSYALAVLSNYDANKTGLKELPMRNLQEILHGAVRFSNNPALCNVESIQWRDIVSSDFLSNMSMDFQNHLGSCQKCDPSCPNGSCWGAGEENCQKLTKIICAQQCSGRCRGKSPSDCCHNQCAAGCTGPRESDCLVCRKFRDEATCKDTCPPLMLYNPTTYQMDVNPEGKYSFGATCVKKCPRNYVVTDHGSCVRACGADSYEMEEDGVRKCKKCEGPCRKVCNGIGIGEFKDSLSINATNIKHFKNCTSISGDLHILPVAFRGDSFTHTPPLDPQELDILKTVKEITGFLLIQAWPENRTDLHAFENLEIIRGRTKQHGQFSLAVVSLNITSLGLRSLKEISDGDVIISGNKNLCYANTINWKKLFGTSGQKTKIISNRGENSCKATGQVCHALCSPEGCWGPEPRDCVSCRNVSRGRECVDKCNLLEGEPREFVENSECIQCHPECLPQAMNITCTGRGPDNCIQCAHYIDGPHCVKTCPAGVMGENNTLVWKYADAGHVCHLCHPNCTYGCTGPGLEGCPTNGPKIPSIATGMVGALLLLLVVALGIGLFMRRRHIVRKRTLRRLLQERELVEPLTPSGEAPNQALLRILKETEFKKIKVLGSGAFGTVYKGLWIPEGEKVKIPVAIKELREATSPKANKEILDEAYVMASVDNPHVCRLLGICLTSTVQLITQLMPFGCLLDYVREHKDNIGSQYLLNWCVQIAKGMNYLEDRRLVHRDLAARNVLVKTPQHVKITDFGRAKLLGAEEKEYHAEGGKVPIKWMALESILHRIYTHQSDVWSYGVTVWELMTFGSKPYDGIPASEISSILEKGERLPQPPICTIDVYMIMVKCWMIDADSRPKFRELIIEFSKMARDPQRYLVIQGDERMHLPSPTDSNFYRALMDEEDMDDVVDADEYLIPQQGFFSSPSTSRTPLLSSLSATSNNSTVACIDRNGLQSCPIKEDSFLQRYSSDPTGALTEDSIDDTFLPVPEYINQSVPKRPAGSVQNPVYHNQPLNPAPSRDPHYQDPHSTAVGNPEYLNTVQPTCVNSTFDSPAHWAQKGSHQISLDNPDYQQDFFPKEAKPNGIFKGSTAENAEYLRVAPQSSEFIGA
In short: as §1

[3] = molecular target: T3, EGFR L858R/T790M (Homo sapiens, UniProt P00533, L858R/T790M); test: Inhibition of EGFR L858R/T790M biochemical enzymatic activity (HTRF); conditions: 1 mM ATP
T3 construct: purchased Carna Bio
In short: as §1

[4] = molecular target: T4, EGFR Exon19Del (Homo sapiens, UniProt P00533, DEL746-750); test: Inhibition of EGFR Exon19Del biochemical enzymatic activity (HTRF); conditions: read-out: IC50 @Del19
T4 construct: purchased Carna Bio
T4 sequence (P00533 with tags, fused parts or gaps DEL746-750 limits assumed): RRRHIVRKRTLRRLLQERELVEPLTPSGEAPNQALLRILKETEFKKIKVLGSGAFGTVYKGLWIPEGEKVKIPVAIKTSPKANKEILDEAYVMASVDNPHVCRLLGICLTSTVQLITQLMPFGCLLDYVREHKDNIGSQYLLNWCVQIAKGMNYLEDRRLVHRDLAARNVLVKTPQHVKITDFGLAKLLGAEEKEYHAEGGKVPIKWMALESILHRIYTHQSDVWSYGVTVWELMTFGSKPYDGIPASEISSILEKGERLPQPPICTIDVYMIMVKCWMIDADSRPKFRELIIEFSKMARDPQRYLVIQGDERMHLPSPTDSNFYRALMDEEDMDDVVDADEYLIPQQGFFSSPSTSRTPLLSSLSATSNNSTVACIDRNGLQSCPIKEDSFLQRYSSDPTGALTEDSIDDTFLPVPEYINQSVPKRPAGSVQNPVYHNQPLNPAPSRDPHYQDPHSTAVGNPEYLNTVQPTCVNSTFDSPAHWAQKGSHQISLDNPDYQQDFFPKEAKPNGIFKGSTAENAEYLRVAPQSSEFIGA
In short: as §1

[5] = molecular target: T5, EGFR Exon19Del/T790M (Homo sapiens, UniProt P00533, DEL746-750/T790M); test: Inhibition of EGFR Exon19Del/T790M biochemical enzymatic activity (HTRF); conditions: 1 mM ATP
T5 construct: purchased Carna Bio
In short: as §1

[6] = molecular target: T6, EGFR[T790M/C797S/L858R] (Homo sapiens, UniProt P00533, C797S/L858R/T790M); test: Inhibition of EGFR[T790M/C797S/L858R] biochemical enzymatic activity (HTRF); conditions: 1 mM ATP
T6 construct: purchased Carna Bio
In short: as §1

[7] = molecular target: T7, EGFR[T790M/C797S/d746-750] (Homo sapiens, UniProt P00533, C797S/DEL746-750/T790M); test: Inhibition of EGFR[T790M/C797S/d746-750] biochemical enzymatic activity (HTRF)
T7 construct: purchased Carna Bio
T7 sequence (P00533 with tags, fused parts or gaps DEL746-750/T790M/C797S limits assumed): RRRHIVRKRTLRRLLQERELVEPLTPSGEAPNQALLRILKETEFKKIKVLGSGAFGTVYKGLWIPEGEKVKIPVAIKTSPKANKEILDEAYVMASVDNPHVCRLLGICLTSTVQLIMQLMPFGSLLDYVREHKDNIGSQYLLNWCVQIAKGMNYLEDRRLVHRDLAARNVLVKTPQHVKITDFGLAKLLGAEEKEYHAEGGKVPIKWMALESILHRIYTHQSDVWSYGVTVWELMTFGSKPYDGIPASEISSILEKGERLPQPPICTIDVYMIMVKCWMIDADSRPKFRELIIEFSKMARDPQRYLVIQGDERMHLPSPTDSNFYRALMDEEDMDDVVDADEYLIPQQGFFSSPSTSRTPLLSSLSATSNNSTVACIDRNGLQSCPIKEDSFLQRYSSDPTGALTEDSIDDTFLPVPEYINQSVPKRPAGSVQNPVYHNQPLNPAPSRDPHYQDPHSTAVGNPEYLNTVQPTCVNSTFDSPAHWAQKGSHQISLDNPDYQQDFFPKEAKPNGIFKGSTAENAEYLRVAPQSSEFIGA
In short: as §1

[8] = molecular target: T8, EGFR (d746-750 C797S) (Homo sapiens, UniProt P00533, C797S/DEL746-750); test: Inhibition of EGFR (d746-750 C797S) biochemical enzymatic activity (HTRF); conditions: 1 mM ATP
T8 construct: purchased signalchem
In short: as §1

[9] = molecular target: T9, EGFR (C797S L858R) (Homo sapiens, UniProt P00533, C797S/L858R); test: Inhibition of EGFR (C797S L858R) biochemical enzymatic activity (HTRF); conditions: 1 mM ATP
T9 construct: purchased signalchem
T9 sequence (P00533 25-1210 C797S/L858R): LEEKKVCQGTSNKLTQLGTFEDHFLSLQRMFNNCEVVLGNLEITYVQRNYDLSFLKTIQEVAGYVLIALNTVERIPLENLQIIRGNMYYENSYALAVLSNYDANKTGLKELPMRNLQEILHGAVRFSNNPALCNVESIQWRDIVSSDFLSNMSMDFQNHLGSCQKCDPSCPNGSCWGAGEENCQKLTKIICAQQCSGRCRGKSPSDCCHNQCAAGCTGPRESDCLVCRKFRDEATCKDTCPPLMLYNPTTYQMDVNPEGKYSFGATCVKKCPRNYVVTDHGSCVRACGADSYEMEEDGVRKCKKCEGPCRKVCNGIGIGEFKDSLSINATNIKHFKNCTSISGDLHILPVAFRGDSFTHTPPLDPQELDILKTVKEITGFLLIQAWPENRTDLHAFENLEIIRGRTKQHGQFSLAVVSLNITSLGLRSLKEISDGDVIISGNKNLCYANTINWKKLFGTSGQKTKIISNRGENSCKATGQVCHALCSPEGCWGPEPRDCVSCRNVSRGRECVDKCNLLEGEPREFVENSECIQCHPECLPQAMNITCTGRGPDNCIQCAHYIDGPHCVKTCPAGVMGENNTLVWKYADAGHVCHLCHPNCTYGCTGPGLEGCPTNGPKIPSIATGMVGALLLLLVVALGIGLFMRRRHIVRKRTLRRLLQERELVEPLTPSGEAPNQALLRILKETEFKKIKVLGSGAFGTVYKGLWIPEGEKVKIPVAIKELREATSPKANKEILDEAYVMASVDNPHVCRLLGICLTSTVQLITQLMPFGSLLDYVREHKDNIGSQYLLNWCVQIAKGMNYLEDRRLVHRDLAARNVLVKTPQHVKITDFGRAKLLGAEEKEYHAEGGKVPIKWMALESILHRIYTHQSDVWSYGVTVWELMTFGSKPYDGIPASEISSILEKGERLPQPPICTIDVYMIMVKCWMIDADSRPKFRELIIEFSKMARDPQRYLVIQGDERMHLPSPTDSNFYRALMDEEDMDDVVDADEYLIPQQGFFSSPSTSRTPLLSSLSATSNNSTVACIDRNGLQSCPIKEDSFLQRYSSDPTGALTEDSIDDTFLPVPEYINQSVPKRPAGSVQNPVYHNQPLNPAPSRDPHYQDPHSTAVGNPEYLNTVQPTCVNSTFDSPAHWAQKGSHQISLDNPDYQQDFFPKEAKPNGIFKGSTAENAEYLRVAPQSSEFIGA
In short: as §1

[10] = tested on: Ba/F3 cells expressing EGFR mutations; test: Cell proliferation assay, Ba/F3 cells expressing EGFR mutations (CellTiter-Glo, 72 hours); assay type: cell-based
In short: (§2)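 Cells are exposed to graded compound concentrations after overnight plating, using 500 PC-9 or 5000 Ba/F3 per well. Baseline-subtracted viability is compared with vehicle to give percent proliferation, then GI50.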

[11] = tested on: PC-9; test: Cell proliferation assay, PC-9 cells (CellTiter-Glo, 72 hours); assay type: cell-based; conditions: PC9 cells, read-out: GI50 PC9
In short: as §2

[12] = tested on: A-431; test: Cell proliferation assay, A-431 cells (GI50, Table 6); assay type: cell-based
Procedure: [Worded in the source for another cell line; this cell line is reported under the same test.] Ba/F3 cells expressing EGFR mutations were seeded in 384-well plates at 5000 cells/well in RPMI1640 medium containing […]. PC-9 at 500 cells/well was seeded into 384-well plates in RPMI1640 medium with 10% FBS. After overnight incubation, the assay plates were dosed with compounds at a series of concentrations. Alongside dosing the assay plates, the day 0 plate was processed using CellTiter-Glo® Luminescent Cell Viability Assay (Promega) to measure the number of viable cells (G0). The assay plates were further incubated for 72 hours and the number of viable cells (G3) was measured. The percentage of proliferation was calculated as: […]=100×(G3 value of sample well−G0 value)/(G3 value of DMSO control−G0 value). The concentration of compound producing 50% proliferation inhibition (GI50) was further calculated in best-fit curves using XLFit software. N/A=not available.

[13] = EGFR WT, 1 h, room temperature, read-out: IC50 (nM) @WT
[14] = 1 h, room temperature, read-out: IC50 (nM) @L858R
[15] = EGFR L858R-T790M, 1 h, room temperature, read-out: IC50 (nM) @L858R-T790M
[16] = EGFR Del19-T790M, 1 h, room temperature, read-out: IC50 (nM) @Del19-T790M
[17] = EGFR T790M-C797S-L858R, 1 h, room temperature, read-out: IC50 (nM) @T790M- C797S - L858R
[18] = EGFR T790M-C797S-Del19, 1 mM ATP, 1 h, room temperature, read-out: IC50 (nM) @T790M - C797S - Del19
[19] = EGFR Del19-C797S, 1 h, room temperature, read-out: IC50 (nM) @Del19-C797S
[20] = EGFR L858-C797S, 1 h, room temperature, read-out: IC50 (nM) @L858-C797S
[21] = Mus musculus, BaF3, 72 h, BaF3 cells, EGFR DEL19 - C797S, read-out: GI50 DEL19 - C797S/BaF3
[22] = Mus musculus, BaF3, 72 h, BaF3 cells, EGFR DEL19 - T790-C797S, read-out: GI50 DEL19 - T790-C797S/BaF3
[23] = Mus musculus, BaF3, 72 h, BaF3 cells, EGFR L858R - C797S, read-out: GI50 L858R - C797S/BaF3
[24] = Mus musculus, BaF3, 72 h, BaF3 cells, EGFR L858R - T790-C797S, read-out: GI50 L858R - T790-C797S/BaF3
[25] = Mus musculus, BaF3, 72 h, BaF3 cells, EGFR L858R - T790M, read-out: GI50 L858R - T790M/BaF3
[26] = Mus musculus, BaF3, 72 h, BaF3 cells, EGFR L858R, read-out: GI50 L858R/BaF3
[27] = Mus musculus, BaF3, 72 h, EGFR DEL19 - T790M, read-out: GI50 DEL19 - T790M
[28] = Homo sapiens, A-431, A-431 cells
[29] = EGFR wild type, 1 h at room temperature, read-out: IC50 @WT
[30] = 1 h at room temperature, read-out: IC50 @L858R
[31] = EGFR L858R/T790M, 1 h at room temperature, read-out: IC50 @L858R-T790M
[32] = EGFR Exon19Del, 1 mM ATP, 1 h at room temperature
[33] = EGFR Exon19Del/T790M, 1 h at room temperature, read-out: IC50 @Del19-T790M
[34] = EGFR[T790M/C797S/L858R], 1 h at room temperature, read-out: IC50 @T790M- C797S - L858R
[35] = EGFR[T790M/C797S/d746-750], 1 mM ATP, 1 h at room temperature, read-out: IC50 @T790M - C797S - Del19
[36] = EGFR (d746-750 C797S), 1 h at room temperature, read-out: IC50 @Del19-C797S
[37] = EGFR (C797S L858R), 1 h at room temperature, read-out: IC50 @L858-C797S
[38] = BaF3 cells, EGFR DEL19 - C797S, read-out: GI50 DEL19 - C797S/BaF3
[39] = BaF3 cells, EGFR DEL19 - T790-C797S, read-out: GI50 DEL19 - T790-C797S/BaF3
[40] = BaF3 cells, EGFR L858R - C797S, read-out: GI50 L858R - C797S/BaF3
[41] = BaF3 cells, EGFR L858R - T790-C797S, read-out: GI50 L858R - T790-C797S/BaF3
[42] = BaF3 cells, EGFR L858R - T790M, read-out: GI50 L858R - T790M/BaF3
[43] = BaF3 cells, EGFR L858R, read-out: GI50 L858R/BaF3
[44] = EGFR DEL19 - T790M, read-out: GI50 DEL19 - T790M

T1 sequence (P00533 25-1210): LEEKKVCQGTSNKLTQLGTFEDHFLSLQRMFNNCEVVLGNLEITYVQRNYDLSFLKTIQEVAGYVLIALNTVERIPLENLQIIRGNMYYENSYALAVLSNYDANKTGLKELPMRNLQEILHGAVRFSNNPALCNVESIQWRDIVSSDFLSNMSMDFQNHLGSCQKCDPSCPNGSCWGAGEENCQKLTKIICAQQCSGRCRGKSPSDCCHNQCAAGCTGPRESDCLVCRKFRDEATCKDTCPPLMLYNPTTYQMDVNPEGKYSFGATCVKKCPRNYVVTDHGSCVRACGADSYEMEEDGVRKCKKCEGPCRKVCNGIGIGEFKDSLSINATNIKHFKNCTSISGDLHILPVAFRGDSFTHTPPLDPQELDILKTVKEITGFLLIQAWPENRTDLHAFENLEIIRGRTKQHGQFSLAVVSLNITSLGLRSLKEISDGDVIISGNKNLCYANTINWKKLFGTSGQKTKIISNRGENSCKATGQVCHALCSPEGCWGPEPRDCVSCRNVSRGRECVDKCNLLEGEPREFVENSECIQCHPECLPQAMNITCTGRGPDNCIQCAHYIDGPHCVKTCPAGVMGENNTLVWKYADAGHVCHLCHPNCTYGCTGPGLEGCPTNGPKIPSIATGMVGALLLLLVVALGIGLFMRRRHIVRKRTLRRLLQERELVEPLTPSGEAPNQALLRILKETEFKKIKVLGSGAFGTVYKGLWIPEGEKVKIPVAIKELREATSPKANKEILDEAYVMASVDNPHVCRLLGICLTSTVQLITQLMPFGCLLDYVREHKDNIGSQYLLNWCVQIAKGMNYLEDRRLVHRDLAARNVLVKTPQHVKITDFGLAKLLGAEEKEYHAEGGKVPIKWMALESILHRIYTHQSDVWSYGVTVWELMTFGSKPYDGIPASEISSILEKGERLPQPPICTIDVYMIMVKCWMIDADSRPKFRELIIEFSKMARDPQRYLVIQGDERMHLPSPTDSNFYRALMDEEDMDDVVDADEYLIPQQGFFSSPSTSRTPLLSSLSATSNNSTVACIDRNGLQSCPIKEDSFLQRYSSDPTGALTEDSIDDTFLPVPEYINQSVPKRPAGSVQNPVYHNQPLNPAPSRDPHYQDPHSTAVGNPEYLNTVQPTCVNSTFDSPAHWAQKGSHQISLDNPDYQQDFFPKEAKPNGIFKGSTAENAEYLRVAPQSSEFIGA

IC50 [1, 13] [nM]	IC50 [2, 14] [nM]	GI50 [10, 21] [nM]	GI50 [10, 22] [nM]	GI50 [10, 23] [nM]	GI50 [10, 24] [nM]	GI50 [10, 25] [nM]	GI50 [10, 26] [nM]	GI50 [10, 27] [nM]	GI50 ([11]; Homo sapiens, PC-9, 72 h) [nM]	GI50 [12, 28] [nM]	IC50 [1, 29] [nM]	IC50 [2, 30] [nM]	IC50 [3, 31] [nM]	IC50 [4, 32] [nM]	IC50 [5, 33] [nM]	IC50 [6, 34] [nM]	IC50 [7, 35] [nM]	IC50 [8, 36] [nM]	IC50 [9, 37] [nM]	Structure (SMILES)	other results
											3370	212	2.6	4.6	2.8	2.6	2.2	2.3	59	Cc1cc2cc(n1)-c1cnn(C)c1OCCN1CC3CCC(C3)(C1)n1c(nc3ccc(N4CCOCC4)cc31)NC2=O (single isomer, unassigned) [Example B10A, 15,21-Dimethyl-5-(morpholin-4-yl)-23-oxa-2,9,11,16,20,21,26-heptaazaheptacyclo[24.4.1.1^{1,28}.1^{13,17}.0^{2,10}.0^{3,8}.0^{18,22}]tritriaconta-3,5,7,9,13,15,17(33),18(22),19-nonaen-12-one]	GI50 [10, 38]: 0.79 nM; GI50 [10, 39]: 0.84 nM; GI50 [10, 40]: 18 nM; GI50 [10, 41]: 0.91 nM; GI50 [10, 42]: 2.1 nM; GI50 [10, 43]: 24 nM; GI50 [10, 44]: 0.89 nM; GI50 [11]: 41 nM; GI50 ([12]; A-431 cells): 1730 nM
											> 5000	> 5000	> 5000	1080	> 5000	> 5000	4040	1430	> 5000	Cc1cc2cc(n1)-c1cnn(C)c1OCCN1CC3CCC(C3)(C1)n1c(nc3ccc(N4CCOCC4)cc31)NC2=O (single isomer, unassigned) [Example B10B, 15,21-Dimethyl-5-(morpholin-4-yl)-23-oxa-2,9,11,16,20,21,26-heptaazaheptacyclo[24.4.1.1^{1,28}.1^{13,17}.0^{2,10}.0^{3,8}.0^{18,22}]tritriaconta-3,5,7,9,13,15,17(33),18(22),19-nonaen-12-one]	GI50 [10, 38]: 403 nM; GI50 [10, 39]: 516 nM; GI50 [10, 40]: 1580 nM; GI50 [10, 41]: 595 nM; GI50 [10, 42]: 539 nM; GI50 [10, 43]: 2910 nM; GI50 [10, 44]: 765 nM; GI50 [11]: 2620 nM; GI50 ([12]; A-431 cells): 5520 nM
		24	10	127	19	38	81	10	103	1680		244	20	19	11	8.2	7.3	15	113	Cc1cc2cc(n1)-c1cnn(C)c1OCCN1CC3CCC(CC3)(C1)n1c(nc3ccc(N4CCC5(CCN(C)CC5)C4)cc31)NC2=O [Example B31]	

The next lines start with the molecule.

Structure (SMILES)	IC50 [1, 13] [nM]	IC50 [2, 14] [nM]	GI50 [10, 21] [nM]	GI50 [10, 22] [nM]	GI50 [10, 23] [nM]	GI50 [10, 24] [nM]	GI50 [10, 25] [nM]	GI50 [10, 26] [nM]	GI50 [10, 27] [nM]	GI50 ([11]; Homo sapiens, PC-9, 72 h) [nM]	GI50 [12, 28] [nM]	IC50 [1, 29] [nM]	IC50 [2, 30] [nM]	IC50 [3, 31] [nM]	IC50 [4, 32] [nM]	IC50 [5, 33] [nM]	IC50 [6, 34] [nM]	IC50 [7, 35] [nM]	IC50 [8, 36] [nM]	IC50 [9, 37] [nM]	other results
Cn1ncc2c1OCCN1CC3CCC(C3)(C1)n1c(nc3cc(F)c(N4CCOCC4)cc31)NC(=O)c1cc-2c(=O)n(C)c1 (single isomer, unassigned) [Example A118B]	3640	110	0.68	4.1	8.2	6.7	19	3.8	1.8	16	1120										IC50 [3, 15]: 61 nM; IC50 ([4]; EGFR Del19, 1 mM ATP, 1 h, room temperature): 8.7 nM; IC50 [5, 16]: 7.4 nM; IC50 [6, 17]: 11 nM; IC50 [7, 18]: 2.9 nM; IC50 [8, 19]: 3.2 nM; IC50 [9, 20]: 37 nM
Cc1cc2cc(n1)-c1cnn(C)c1OCCN1CC3CCC(C3)(C1)n1c(nc3ccccc31)NC2=O (single isomer, unassigned) [Example B8A, 15,21-dimethyl-23-oxa-2,9,11,16,20,21,26-heptaazaheptacyclo[24.4.1.1^{1,28}.1^{13,17}.0^{2,10}.0^{3,8}.0^{18,22}]tritriaconta-3,5,7,9,13,15,17(33),18(22),19-nonaen-12-one]			620	251	2120	290	1170	3560	298	2850	6390	> 5000	> 5000	> 5000	729	4000	> 5000	3990	659	> 5000	
CN1CCN(c2cc3c(cc2F)nc2n3C34CCC(CC3)CN(CCOc3c(cnn3C)-c3cc(cn(C)c3=O)C(=O)N2)C4)CC1 [Example A115, 6-fluoro-15,21-dimethyl-5-(4-methylpiperazin-1-yl)-23-oxa-2,9,11,15,20,21,26-heptaazaheptacyclo[26.2.2.1^{1,26}.1^{13,17}.0^{2,10}.0^{3,8}.0^{18,22}]tetratriaconta-3,5,7,9,13,17(34),18(22),19-octaene-12,16-dione]	> 5000	233	7.6	52	61	68	133	20	18	94	3040										IC50 [3, 15]: 325 nM; IC50 [5, 16]: 12 nM; IC50 [6, 17]: 50 nM; IC50 [7, 18]: 6.6 nM; IC50 [8, 19]: 9.2 nM; IC50 [9, 20]: 112 nM
